Assay [1] has as its target T1, CXCR7 receptor (Homo sapiens (Human), UniProt P25106). Description: Serum Binding Analysis: displacement of 125I-labeled SDF-1 from CXCR7 in 100% human serum. Particulars: 125I SDF-1 displacement in 100% human serum, MCF-7 and/or MDA-MB-435S CXCR7 transfected cells, 3 hrs at 4° C.; read-out: Avg Ser IC50. The method, then:
(§1) The compounds were combined with cells expressing the CXCR7 receptor (e.g., MCF cells or cells transfected to express CXCR7) in the presence of the 125 I-labeled SDF-1 chemokine as detailed in Determination of IC50 values. Reagents and Cells (see below). The ability of the compounds to displace the labeled chemokine from the CXCR7 receptor sites at multiple concentrations was then determined with the screening process.
In Table 1, Avg Bind IC50 refers to the Buffer Binding Analysis described below, while Avg Ser IC50 refers to the Serum Binding Analysis described below. All compounds were prepared as described in the Examples above, or by related methods substituting readily available starting materials.
(§2) ^125I-labeled SDF-1 was purchased from Perkin-Elmer Life Sciences, Inc. (Boston, Mass.). The MCF-7 (adenocarcinoma; mammary gland) cell line was obtained from the American Type Culture Collection (ATCC, Manassas, Va.) or and was cultured in DMEM (Mediatech, Herndon, Va.) supplemented with 10% fetal bovine serum (FBS) (HyClone Logan, Utah) and bovine insulin (0.01 mg/mL) (Sigma. St. Louis, Mo.) at 37° C. in a humidified incubator at a 5% CO2/air mixture. CXCR7 transfected MDA-MB-435S were produced as described below. MDA-MB-435S human breast cancer line, was purchased from ATCC, and cultured in DMEM/10% FBS medium. The complete coding sequence of the gene encoding CXCR7 (a.k.a. CCXCKR2, hRDC1), was isolated from MCF-7 cells using μMACs mRNA isolation kit (Miltenyi Biotec, Auburn, Calif.). DNA contamination was removed by DNase digestion via RNeasy columns (Qiagen, Inc., Valencia, Calif.) and cDNA was generated using GeneAmp RNA PCR Core Kit (Applied Biosystems, Foster City. Calif.). PCR of cDNA samples was performed using Taq PCR Master Mix kit (Qiagen. Inc.) and hRDC1 primers harboring 5′ and 3′ Not I sites (hRDC1F 5′ […]-3, hRDC1R 5′-[…]-3′) Not I digested PCR product was ligated into Not I digested pcDNA3.1(+)(Invitrogen, Carlsbad, Calif.) and screened for orientation and sequence confirmed. Plasmid DNA was then isolated from overnight bacterial cultures by Maxiprep (Qiagen, Inc.). Plasmid DNA (10 μg) was added to MDA-MB-435s cells and cells were electroporated (0.22 kV, 960 uF) via Gene Pulser (Biorad laboratories, Hercules, Calif.). 48 hr post-electroporation, cells were transferred to selection medium (600 ug/ml G418).
In order to more properly assess the binding efficacy of the compounds, radioligand binding assays were carried out in the presence of 100% human serum to more accurately reflect the in vivo environment. […] Target compounds were tested to determine their ability to bind with CXCR7 sites on MCF-7 and/or MDA-MB-435S CXCR7 transfected cells. Efficiency-maxim/zed radioligand binding using filtration protocols as described in Dairaghi D J, et al., HHV8-encoded vMIP-I selectively engages chemokine receptor CCR5. Agonist and antagonist profiles of viral chemokines., J. Biol. Chem. 1999 Jul. 30; 274(31): 21569-74 and Gosling J, et al., Cutting edge: identification of a novel chemokine receptor that binds dendritic cell- and T cell-active chemokines including ELC, SLC, and TECK, J. Immunol. 2000 Mar. 15; 164(6):2851-6 was used.
In these assays, MCF-7 and/or MDA-MB-435S cells were interrogated with the target compounds and the ability of these compounds to displace 125 I radiolabeled SDF-1 was assessed using the protocol described in Dairaghi and Gosling. The target compounds were added to the plate to the indicated concentration followed by addition of cells and radiolabeled chemokine (125I SDF-1), both in the following medium (human AB serum with 10 mM HEPES added to stabilize at pH 7.4). All assays were then incubated for 3 hrs at 4° C. with gentle agitation.

Assay [2] has as its target T1, CXCR7 receptor. Description: Buffer Binding Analysis: displacement of 125I-labeled SDF-1 from CXCR7. Particulars: 125I SDF-1 displacement, buffer binding medium, MCF-7 and/or MDA-MB-435S CXCR7 transfected cells, 3 hr at 4° C.; read-out: Avg Bind IC50. The method, then:
as §1
Compounds that were deemed effective modulators were able to displace at least 50% of the SDF-1 from the CXCR7 receptor at concentrations at or below 15 micromolar (μM) but >2500 nM (+); and more preferably at concentrations from >500 nM to ≤2500 nM (++). At present, especially preferred compounds can displace at least 50% of the SDF-1 from the CXCR7 receptor at concentrations at or below 500 nM (+++). Exemplary compounds that met these criteria are reproduced in Table 1 and the Examples above. In Table 1, Avg Bind IC50 refers to the Buffer Binding Analysis described below, while Avg Ser IC50 refers to the Serum Binding Analysis described below. All compounds were prepared as described in the Examples above, or by related methods substituting readily available starting materials.
as §2
Target compounds can be tested to determine their ability to bind with CXCR7 sites on MCF-7 and/or MDA-MB-435S CXCR7 transfected cells. Efficiency-maxim/zed radioligand binding using filtration protocols as described in Dairaghi D J, et al., HHV8-encoded vMIP-I selectively engages chemokine receptor CCR5. Agonist and antagonist profiles of viral chemokines., J. Biol. Chem. 1999 Jul. 30; 274(31): 21569-74 and Gosling J. et al., Cutting edge: identification of a novel chemokine receptor that binds dendritic cell-and T cell-active chemokines including ELC. SLC, and TECK., J. Immunol. 2000 Mar. 15; 164(6):2851-6 was used.
In these assays, MCF-7 and/or MDA-MB-435S cells are interrogated with the target compounds and the ability of these compounds to displace ^125I radiolabeled SDF-1 assessed using the protocol described in Dairaghi and Gosling. […]

T1 sequence (P25106 whole entry): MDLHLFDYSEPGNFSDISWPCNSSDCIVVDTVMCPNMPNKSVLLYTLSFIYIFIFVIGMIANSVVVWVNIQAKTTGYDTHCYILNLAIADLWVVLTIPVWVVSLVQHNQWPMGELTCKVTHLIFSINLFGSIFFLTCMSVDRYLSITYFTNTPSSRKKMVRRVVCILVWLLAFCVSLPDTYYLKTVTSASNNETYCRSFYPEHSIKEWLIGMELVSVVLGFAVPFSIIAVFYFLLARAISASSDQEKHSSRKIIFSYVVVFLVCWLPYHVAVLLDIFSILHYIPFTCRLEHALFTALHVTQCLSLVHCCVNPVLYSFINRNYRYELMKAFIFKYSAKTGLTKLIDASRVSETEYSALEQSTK

Take `O=C(N[C@H]1CCN(c2nccn3cccc23)C1)c1coc(-c2ccc(F)cc2)n1` [Compound 1.095]: the IC50 in assay [1] and in assay [2] was at most 500 nM each time.

On to `O=C(N[C@H]1CCN(c2nccn3cccc23)C1)c1csc(-c2ccc(F)cc2)n1` [Compound 1.096], for which the IC50 in assay [1] and in assay [2] was at most 500 nM throughout.

For `Cc1ccn2ccnc(N3CC[C@H](NC(=O)c4ccn(-c5cccc(F)c5)n4)C3)c12` [Compound 1.099], the IC50 in assay [1] and in assay [2] was at most 500 nM throughout.

With `Cc1ccn2ccnc(N3CC[C@H](NC(=O)c4ccn(-c5ccc(Cl)c(F)c5)n4)C3)c12` [Compound 1.100], the IC50 in assay [1] was 2500 to 15000 nM; in assay [2], at most 500 nM.

Take `Cc1ccn2ccnc(N3CC[C@H](NC(=O)c4ccn(-c5ccccc5CC#N)n4)C3)c12` [Compound 1.101]: the half-maximal inhibitory concentration (IC50) in assay [1] is 500 to 2500 nM; in assay [2], at most 500 nM.

Take `O=C(N[C@H]1CCN(c2nccn3ccnc23)C1)c1ccn(-c2ccc(Cl)cc2)n1` [Compound 1.102]: the IC50 in assay [1] and in assay [2] was at most 500 nM throughout.

As to `Cc1cc(Cl)ccc1-n1ccc(C(=O)N[C@H]2CCN(c3nccn4ccc(C)c34)C2)n1` [Compound 1.103], the figures for the IC50 in assay [1] and in assay [2] were 500 to 2500 nM and at most 500 nM, respectively.

On to `Cc1ccn2ccnc(N3CC[C@H](NC(=O)c4ccn(-c5ccc(Cl)cc5)n4)C3)c12` [Compound 1.104], for which the figures for the IC50 in assay [1] and in assay [2] were 2500 to 15000 nM and at most 500 nM, respectively.

`Cc1ccn2ccnc(N3CC[C@H](NC(=O)c4csc(-c5ccccc5)n4)C3)c12` [Compound 1.105]: the IC50 in assay [1] is 500 to 2500 nM; in assay [2], at most 500 nM.

`Cc1ccn2ccnc(N3CC[C@H](NC(=O)c4ccn(-c5ccc(F)cc5)n4)C3)c12` [Compound 1.106]: the IC50 is 500 to 2500 nM in assay [1] and at most 500 nM in assay [2].

Consider `Cc1ccn2ccnc(N3CC[C@H](NC(=O)c4coc(-c5ccccc5)n4)C3)c12` [Compound 1.107], for which the IC50 was 500 to 2500 nM in assay [1] and at most 500 nM in assay [2].

For `Cc1ccn2ccnc(N3CC[C@H](NC(=O)c4csc(-c5ccc(F)cc5)n4)C3)c12` [Compound 1.108], the IC50 in assay [1] was 500 to 2500 nM; in assay [2] it was at most 500 nM.

With `Cc1ccccc1-n1ccc(C(=O)N[C@H]2CCN(c3nccn4ccc(C)c34)C2)n1` [Compound 1.109], the IC50 was 500 to 2500 nM in assay [1] and at most 500 nM in assay [2].

Consider `Cc1ccn2ccnc(N3CC[C@H](NC(=O)c4ncc(-c5ccccc5)cn4)C3)c12` [Compound 1.110], for which the values for the IC50 in assay [1] and in assay [2] were 500 to 2500 nM and at most 500 nM, respectively.

With `Cc1ccn2ccnc(N3CC[C@H](NC(=O)c4noc(-c5ccccc5)n4)C3)c12` [Compound 1.111], the half-maximal inhibitory concentration (IC50) in assay [1] was 500 to 2500 nM; in assay [2], at most 500 nM.

On to `O=C(N[C@H]1CCN(c2nccn3cnnc23)C1)c1ccn(-c2ccc(Cl)cc2)n1` [Compound 1.112], for which the IC50 in assay [1] is 500 to 2500 nM; in assay [2], at most 500 nM.

With `O=C(N[C@H]1CCN(c2nccn3cccc23)C1)c1ccn(-c2cccc(F)c2)n1` [Compound 1.113], the IC50 in assay [1] and in assay [2] was at most 500 nM in each case.

On to `O=C(N[C@H]1CCN(c2nccn3cccc23)C1)c1ccn(-c2ccc(Cl)c(F)c2)n1` [Compound 1.114], for which the 50% inhibitory concentration (IC50) in assay [1] and in assay [2] was at most 500 nM each time.

Turning to `N#CCc1ccccc1-n1ccc(C(=O)N[C@H]2CCN(c3nccn4cccc34)C2)n1` [Compound 1.115], the 50% inhibitory concentration (IC50) in assay [1] and in assay [2] was at most 500 nM throughout.

For the molecule `Cc1ccn2ccnc(N3CC[C@H](NC(=O)c4coc(-c5ccc(F)cc5)n4)C3)c12` [Compound 1.116], the values for the IC50 in assay [1] and in assay [2] were 500 to 2500 nM and at most 500 nM, respectively.

In the case of `Cc1ccn2ccnc(N3CC[C@H](NC(=O)c4ncn(-c5ccccc5)n4)C3)c12` [Compound 1.117], the IC50 in assay [1] and in assay [2] was at most 500 nM each time.

Turning to `Cc1ccccc1-n1cnc(C(=O)N[C@H]2CCN(c3nccn4cccc34)C2)n1` [Compound 1.118], the IC50 in assay [1] and in assay [2] was at most 500 nM in each case.

On to `O=C(N[C@H]1CCN(c2nccn3cccc23)C1)c1ncn(-c2ccc(Cl)cc2)n1` [Compound 1.119], for which the results for the half-maximal inhibitory concentration (IC50) in assay [1] and in assay [2] were 500 to 2500 nM and at most 500 nM, respectively.

`O=C(N[C@H]1CCN(c2nccn3cccc23)C1)c1noc(-c2ccccc2)n1` [Compound 1.120]: the IC50 in assay [1] and in assay [2] was at most 500 nM in each case.

With `O=C(N[C@H]1CCN(c2nccn3cnnc23)C1)c1coc(-c2ccc(F)cc2)n1` [Compound 1.122], the IC50 in assay [1] and in assay [2] was at most 500 nM each time.

As to `Cc1ccccc1-n1ccc(C(=O)N[C@H]2CCN(c3nccn4cccc34)C2)n1` [Compound 1.123], the IC50 in assay [1] and in assay [2] was at most 500 nM throughout.

Consider `O=C(N[C@H]1CCN(c2nccn3cccc23)C1)c1csc(-c2ccccc2)n1` [Compound 1.124], for which the IC50 in assay [1] and in assay [2] was at most 500 nM each time.

On to `O=C(N[C@H]1CCN(c2nccn3cccc23)C1)c1coc(-c2ccccc2)n1` [Compound 1.125], for which the IC50 in assay [1] and in assay [2] was at most 500 nM throughout.

Regarding `O=C(N[C@H]1CCN(c2nccn3cccc23)C1)c1ncn(-c2ccccc2)n1` [Compound 1.126], the IC50 in assay [1] and in assay [2] was at most 500 nM each time.

For `O=C(N[C@H]1CCN(c2nccn3cnnc23)C1)c1ncn(-c2ccccc2)n1` [Compound 1.127], the half-inhibitory concentration (IC50) in assay [1] and in assay [2] was at most 500 nM throughout.

Consider `O=C(N[C@H]1CCN(c2nccn3cccc23)C1)c1ccn(-c2ccc(Cl)cc2)n1` [Compound 1.129], for which the IC50 in assay [1] and in assay [2] was at most 500 nM each time.

The values above are taken from patent US10287292B2, “CXCR7 antagonists” (CHEMOCENTRYX, INC., priority 2012, dated 2019).
